Where no end group is shown, it is not given here.
Assays:
fibroblast contractility = type: cell-based; conditions: TGFβ-induced
BRD isoforms = type: binding; conditions: data not shown
[1] = system: TGFβ-induced NOX4/SM22α/FN1 expression; assay: TGFβ-induced myofibroblast transition, Q-RT-PCR of NOX4, SM22α and FN1; type: cell-based
[2] = system: idiopathic pulmonary fibrosis; conditions: IPF patients; cited from earlier work
[3] = Hydrophobicity (log P) of BRD4 inhibitors; type: physicochemical
[4] = Drug loading and encapsulation efficiency of PCL14K-DMs; type: physicochemical; conditions: initial loading 20% wt, Dialysis
[5] = system: Bleomycin-induced fibrosis; assay: Bleomycin-induced pulmonary fibrosis, therapeutic dosing; type: in vivo, mice
Intravenous half-life = type: in vivo
BRD4 BD2 domain = BRD4 BD2 domain (Homo sapiens, UniProt O60885); assay: Binding affinity to BRD4 BD2
Text: (§1) BRD4 is a member of the bromodomain and extraterminal (BET) protein family, containing two conserved bromodomains (BD). The BD is a high-affinity binding pocket for BRD4 binding to acetylated Lys residues on histones and transcription factors critical for histone acetyltransferase (HAT) activity. Small molecule BRD4 inhibitors that interact with the BRD4 BD inhibit BRD4 function by displacing BRD4 from genome binding sites, disrupting coactivator binding, and inhibiting its atypical HAT activity. A major limitation of pharmacological approaches to modifying BRD4 is that available inhibitors have poor selectivity for BRD isoforms. A third generation BRD4 inhibitor (BRD4i) with high selectivity for the BRD4 BD1 domain has been identified. This compound, ZL0591, binds with approximately 100 nM affinity to BRD4 BD1, but has 10× lower affinity for the BRD4 BD2 domain, and similarly has low affinity for BRD3.

BRD4 BD1 = BRD4 BD1 (Homo sapiens, UniProt O60885); assay: Binding affinity to BRD4 BD1
Text: as §1

BRD3 = BRD3 (Homo sapiens, UniProt Q15059); assay: Binding affinity to BRD3
Chain of BRD3 (Q15059 whole entry, species assumed): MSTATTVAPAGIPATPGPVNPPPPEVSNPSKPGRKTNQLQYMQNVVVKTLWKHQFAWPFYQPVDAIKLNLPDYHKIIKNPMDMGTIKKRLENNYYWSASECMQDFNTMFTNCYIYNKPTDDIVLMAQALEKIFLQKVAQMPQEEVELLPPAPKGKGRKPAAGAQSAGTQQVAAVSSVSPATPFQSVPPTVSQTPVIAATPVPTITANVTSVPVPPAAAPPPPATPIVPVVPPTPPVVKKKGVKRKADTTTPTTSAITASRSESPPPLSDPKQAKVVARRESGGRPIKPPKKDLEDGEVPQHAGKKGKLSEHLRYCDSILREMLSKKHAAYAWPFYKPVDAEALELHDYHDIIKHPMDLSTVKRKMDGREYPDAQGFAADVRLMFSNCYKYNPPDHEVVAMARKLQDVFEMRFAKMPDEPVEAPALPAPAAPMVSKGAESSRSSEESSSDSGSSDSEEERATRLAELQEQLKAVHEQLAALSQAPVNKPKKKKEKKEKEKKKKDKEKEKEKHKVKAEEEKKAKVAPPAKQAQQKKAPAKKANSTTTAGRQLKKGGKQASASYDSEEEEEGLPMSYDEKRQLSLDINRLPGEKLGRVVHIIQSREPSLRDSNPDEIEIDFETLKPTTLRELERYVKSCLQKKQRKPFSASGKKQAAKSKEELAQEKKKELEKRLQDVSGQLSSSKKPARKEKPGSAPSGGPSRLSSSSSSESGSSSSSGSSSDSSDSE
Text: as §1

MCF-7 cells = assay: Binding to cells with low PD-L1 expression; type: cell-based
Text: (§2) (SEQ ID NO: 5), optimized from the literature.

PD-L1 = PD-L1 (Homo sapiens, UniProt Q9NZQ7); conditions: SPR
Chain of PD-L1 (Q9NZQ7 19-290): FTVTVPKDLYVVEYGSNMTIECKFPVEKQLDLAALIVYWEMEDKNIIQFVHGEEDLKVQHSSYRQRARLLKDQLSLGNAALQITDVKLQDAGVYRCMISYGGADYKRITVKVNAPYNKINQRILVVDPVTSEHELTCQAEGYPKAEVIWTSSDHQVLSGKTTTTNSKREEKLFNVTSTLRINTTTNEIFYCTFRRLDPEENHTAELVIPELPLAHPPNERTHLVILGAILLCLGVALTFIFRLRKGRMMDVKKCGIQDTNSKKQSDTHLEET

7860 cells = assay: Binding to high PD-L1 expressing cells; type: cell-based; conditions: fluorescence
Text: as §2

## Cc1sc2c(c1C)C(c1ccc(Cl)cc1)=N[C@@H](CC(=O)OC(C)(C)C)c1nnc(C)n1-2 [JQ1]
Fibroblast contractility
  Contractility (retraction of collagen plugs): effectively inhibited
BRD isoforms
  Discrimination between BRD isoforms: no discrimination
[1]
  FN1 expression: effectively blocked
  NOX4 expression: effectively blocked
  SM22α expression: effectively blocked

## COC(=O)c1ccc2c(c1)NC(=O)/C2=C(\Nc1ccc(N(C)C(=O)CN2CCN(C)CC2)cc1)c1ccccc1 [Nintedanib, nintedanib]
[2]
  Decrease/loss of forced vital capacity (FVC): efficacy was shown

## COc1cc(OC)c2c(=O)cc(-c3cc(C)c(OC[C@H](O)CN4CCN(C)CC4)c(C)c3)oc2c1 [ZL0516]
[3]
  log P: 2.89
[4]
  Drug Loading %: 0.70 ± 0.17%
  Encapsulation Efficiency %: 2.52 ± 0.17%

## O=C(Nc1ccc(C(F)(F)F)cc1)Nc1ccc(S(=O)(=O)N2CCC[C@H]2CN2CCC(O)CC2)cc1 [ZL0591]
[5]; 10 mg/kg/dose systemic (IP), started 14 d after bleomycin, 14 d of treatment
  Pulmonary collagen content (hydroxyproline in total lung homogenates): significantly reduced
[5]; bleomycin- and BRD4 inhibitor-treated vs controls
  Blood oxygen saturation: increase
[5]; fixed lung sections
  Alveolar consolidation and fibrotic pattern (Massons Trichrome): substantially reduced
[5]; scored by independent pathologist
  Modified Ashcroft indices: reduction in Ashcroft indices was statistically significant
[5]; vs bleomycin treated only
  Lung density by microCT: reduction
Intravenous half-life
  Intravenous T1/2: 11.8 h
BRD4 BD2 domain
  Lower affinity for BRD4 BD2 domain relative to BD1: 10 ×
BRD4 BD1
  Kd: ~100 nM
BRD3
  Affinity for BRD3: low affinity

## Cc1ccc(=O)n(-c2ccccc2)c1 [pirfenidone]
[2]
  Decrease/loss of forced vital capacity (FVC): slows
  Progression-free survival: improves

## G7-pPD1: PD-L1-binding peptide pPD-1 conjugated to G7 PAMAM dendrimers (HVVWHRESPSGQTDTLAA; also: conjugated to G7 PAMAM dendrimers, site not given here)
MCF-7 cells
  Interaction with low PD-L1 expression cells: lack of observed interactions
PD-L1
  KD compared with full antibody (aPD-L1): comparable
7860 cells
  Binding to PD-L1 expressing cells: selective binding
7860 cells; listed as dendrimer-pPD-1
  Binding to PD-L1 expressing cells: specific interaction
